Tests used:
AOI tumor = AOI tumor transplanted to a nude mouse; format: in vivo
[1] = system: regenerated normal bronchial epithelial tissue (NHBE); experiment: cancer therapy sensitivity test by MTT assay, regenerated normal tissue, SuSa feeder layer (Embodiment 3); conditions: 10 μg/ml for 72 hours
Description: (§1) The cancer therapy sensitivity test was conducted in comparison with a conventional two-dimensional culture MTT assay system.
(§2) In these figures, a column of the cancer name (e.g: AOI) corresponds to the sensitivity of the cancer cells in the two-dimensional culture.
(§3) Also in these figures, the brackets the MTT assay correspond, from the left, the normal epithelial cell name employed (this time a bronchial epithelium (NHBE) or prostatic epithelium (PrEC)), the culture medium (1/10-fold or 1-fold), the fibroblast name employed as a feeder layer (human skin-derived (SUSA) or lung-derived (NHLF)). […] The drug treatments with all of three drugs employed here were conducted at 10 μg/ml for 72 hours.

AOI cancer tissue = experiment: cancer therapy sensitivity test by MTT assay, AOI on NHBE, lung-derived fibroblasts (NHLF) as feeder layer; format: cell-based, human; conditions: 10 μg/ml for 72 hours
AOI lung cancer cells = experiment: cancer therapy sensitivity test by MTT assay, AOI on NHBE in stratified structure, SuSa feeder layer (Embodiment 3); format: cell-based, human; conditions: 10 μg/ml for 72 hours
Description: as §1, §2, §3

ACHN-L4 cells = experiment: cancer therapy sensitivity test by MTT assay on regenerated tissue (Embodiment 2), renal cancer; format: cell-based, human; conditions: novel sensitivity test, ACHN-L4 on RPTEC/NHMC regenerated tissue
[2] = system: prostatic cancer-derived DU-145 cancer cells; experiment: cancer therapy sensitivity test by MTT assay, DU-145 on PrEC in stratified structure, SuSa feeder layer (Embodiment 3); format: cell-based, human; conditions: 1/10-fold culture medium, 10 μg/ml for 72 hours
hepatoma cells Alex = experiment: cancer therapy sensitivity test by MTT assay on regenerated tissue (Embodiment 2), hepatoma; format: cell-based, human; conditions: combination of irradiation with cisplatin; Alex on Nheps regenerated tissue
[3] = system: regenerated normal bronchial epithelial tissue (NHBE); experiment: cancer therapy sensitivity test by MTT assay, regenerated normal tissue, lung-derived fibroblasts (NHLF) as feeder layer; format: cell-based, human; conditions: 10 μg/ml for 72 hours
Description: as §1, §2, §3

[4] = 1-fold culture medium, lung-derived fibroblast feeder
[5] = 1/10-fold culture medium, lung-derived fibroblasts as feeder

growth of the regenerated normal bronchial epithelial tissue after removing co-cultured AOI cancer tissue ([1]; 1/10-fold culture medium)	sensitivity of the normal tissue in 3-dimensional culture [3, 4]	sensitivity of tissue in MTT assay [3, 5]	SMILES	sensitivity of AOI tumor to mitomycin compared with cisplatin (AOI tumor; nude mouse-transplanted tumor)	resistance of 3-dimensionally growing normal tissue ([1]; 1-fold level culture medium, drug alone)	resistance of 3-dimensional normal tissue coexisting with the cancer tissue compared with the normal tissue alone ([1]; 1/10-level medium, drug alone)	difference in sensitivity between the skin-derived and lung-derived fibroblasts (AOI cancer tissue; 1/10-fold culture medium)	resistance of 3-dimensional AOI cancer tissue coexisting with the normal tissue compared with 2-dimensionally cultured AOI cells (AOI lung cancer cells; 1/10-level medium, drug alone)	body weight of the nude mouse reduced to (fraction) (AOI tumor; cisplatin at 10 mg/kg)	tumor growth (AOI tumor; cisplatin at 10 mg/kg, nude mouse)	sensitivity of cancer cells in the MTT assay (ACHN-L4 cells)	sensitivity of DU-145 cancer cells compared with the AOI cells [2]	MTT assay result compared with the HDRA method (hepatoma cells Alex)	difference in the sensitivity of the AOI cancer tissue by the difference in the fibroblasts (AOI cancer tissue; 1-fold culture medium, lung-derived vs skin-derived fibroblast feeder)	tendency of 3-dimensional tissue to be more resistant than two-dimensional culture (AOI lung cancer cells; degree influenced by growth factor level in medium)	proliferation of regenerated normal tissue ([1]; 1-fold culture medium, 5FU alone)	sensitivity of the AOI cancer cell tissue in 3-dimensional culture (AOI cancer tissue; [4])	sensitivity of tissue in MTT assay (AOI cancer tissue; [5])
–	–	–	CO[C@@]12[C@H](COC(N)=O)C3=C(C(=O)C(C)=C(N)C3=O)N1C[C@@H]1N[C@@H]12 [MMC, mitomycin]	rather more sensitive	rather more resistant	rather more resistant	no substantial difference	more resistant	–	–	–	–	–	–	–	–	–	–
–	–	–	N.N.[Cl][Pt][Cl] [cisplatin]	–	–	–	–	–	about ⅔	retarded growth was observed only for several days	highly sensitive	rather resistant	exhibited the difference in the effect	small	tendency described above was observed also	–	–	–
tendency of the promotion of the growth	reduced sensitivity	no tissue exhibited any sensitivity	O=c1[nH]cc(F)c(=O)[nH]1 [5FU]	–	–	–	–	–	–	–	–	highly sensitive	–	–	–	proliferation was rather promoted	reduced sensitivity	no tissue exhibited any sensitivity
